From patent US9000154B2, “Rho kinase inhibitors” (Boehringer Ingelheim International GmbH, priority 2010, dated 2015)

These molecules were tested against T1, ROCKII (1-543) (Homo sapiens, UniProt O75116) (assay: IMAP Assay (fluorescence polarization, FAM S6 peptide)). Conditions: IMAP FP, 1 nM ROCKII (1-543), 100 μM ATP; read-out: Assay 2 IC50.
Format: biochemical
Set-up: 3 nM ROCKII (1-543) diluted in kinase reaction buffer
Description: This assay is performed using FAM S6 substrate peptide (Catalogue #R7184) and IMAP FP Screening Express Kit detection reagents from Molecular Devices (Sunnyvale, Calif.) in IMAP kinase reaction buffer (Tris-HCl, pH 7.2, 10 mM MgCl2, 0.05% NaN3, 0.1% phosphate-free BSA) containing 1 mM DTT. Test compounds dissolved in neat DMSO at 0.3 mg/mL are serially diluted 1 to 3 for concentration response in 100% DMSO. The DMSO serial dilutions are further diluted 33.33-fold in kinase reaction buffer, and 10 μL of this buffer dilution is transferred to Corning black 96-well half area NBS plates for a final top concentration of 3 μg/mL in 1% DMSO. 10 μL aliquot of 3 nM ROCKII (1-543) diluted in kinase reaction buffer is added to each assay well for a final concentration of 1 nM kinase. 10 μL of a mixture of 600 nM FAM S6 peptide and 300 μM ATP diluted in kinase reaction buffer is added to each well for a final concentration of 200 nM peptide and 100 μM ATP. The kinase reaction mixture is incubated for 60 minutes at room temperature. Positive controls are reaction mixtures containing no test compound and negative controls (blanks) are reaction mixtures containing no kinase. The kinase reaction is stopped by addition of 60 μL IMAP progressive binding reagent (Catalog #R7284) diluted 400-fold in 1× Binding buffer A. After 30 min of incubation at room temperature, the plates are read for fluorescence polarization on Analyst Plate Reader using Ex 485 nm, Em 530 nm, and FL 505 dichroic mirror. The mP signals are converted to percent of control (POC) values using the formula: POC=100*(Signal−BCTRL)÷(PCTRL−BCTRL)
Where Signal is the test well signal, BCTRL is the average of background (negative control) well signals on the plate and PCTRL is the average of positive control well signals on the plate. For the concentration-responsive compounds, POC as a function of test compound concentration is fitted to a 4-parameter logistic equation of the form: Y=A+(B−A)/[1+(x/C)D]
Where A, B, C, and D are fitted parameters (parameter B is fixed at zero POC), and x and y are the independent and dependent variables, respectively. The IC50 is determined as the inflection point parameter, C.
Target sequence in this assay (O75116 1-543, species assumed): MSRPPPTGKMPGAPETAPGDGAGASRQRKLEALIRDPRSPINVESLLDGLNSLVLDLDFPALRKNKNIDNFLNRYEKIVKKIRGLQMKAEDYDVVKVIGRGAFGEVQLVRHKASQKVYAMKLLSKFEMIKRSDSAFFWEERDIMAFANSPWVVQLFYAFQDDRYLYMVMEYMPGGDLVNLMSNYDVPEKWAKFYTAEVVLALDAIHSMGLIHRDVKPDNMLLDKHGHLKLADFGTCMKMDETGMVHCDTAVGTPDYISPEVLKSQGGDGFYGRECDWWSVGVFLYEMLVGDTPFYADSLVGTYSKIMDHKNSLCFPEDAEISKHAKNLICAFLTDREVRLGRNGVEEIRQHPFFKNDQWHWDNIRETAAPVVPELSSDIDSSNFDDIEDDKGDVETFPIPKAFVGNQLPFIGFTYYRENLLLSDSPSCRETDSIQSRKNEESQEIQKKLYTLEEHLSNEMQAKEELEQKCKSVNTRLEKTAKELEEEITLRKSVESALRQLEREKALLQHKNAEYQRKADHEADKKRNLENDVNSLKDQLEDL

Point of comparison: N#CCCN[C@H]1CCc2nc(NC(=O)c3cccc(Cn4cc(-c5ccc(C#N)cc5)cn4)c3)sc2C1 [Compound 33, N—[(S)-6-(2-Cyano-ethylamino)-4,5,6,7-tetrahydro-benzothiazol-2-yl]-3-[4-(4-cyano-phenyl)-pyrazol-1-ylmethyl]-benzamide], IC50 0.35 nM. Against it:
- CN(C)[C@H]1CCc2nc(NC(=O)c3cccc(Cn4cc(-c5ccc(C#N)cc5)nn4)c3)sc2C1 [Compound 4, 3-[4-(4-Cyano-phenyl)-[1,2,3]triazol-1-ylmethyl]-N—((S)-6-dimethylamino-4,5,6,7-tetrahydro-benzothiazol-2-yl)-benzamide] — within 1.5-fold, 0.49 nM
- CN(C)[C@H]1CCc2nc(NC(=O)c3cccc(Cn4cc(-c5ccc(C#N)cc5)cn4)c3)sc2C1 [Compound 5, 3-[4-(4-Cyano-phenyl)-pyrazol-1-ylmethyl]-N—((S)-6-dimethylamino-4,5,6,7-tetrahydro-benzothiazol-2-yl)-benzamide] — 1.7-fold lower, 0.2 nM
- N#Cc1ccc(-c2cnn(Cc3cccc(C(=O)Nc4nc5c(s4)C[C@@H](N4CCOCC4)CC5)c3)c2)cc1 [Compound 7, 3-[4-(4-Cyano-phenyl)-pyrazol-1-ylmethyl]-N—((S)-6-morpholin-4-yl-4,5,6,7-tetrahydro-benzothiazol-2-yl)-benzamide] — within 1.5-fold, 0.4 nM
- N#Cc1ccc(-c2cn(Cc3cccc(C(=O)Nc4nc5c(s4)C[C@@H](N4CCOCC4)CC5)c3)nn2)cc1 [Compound 8, 3-[4-(4-Cyano-phenyl)-[1,2,3]triazol-1-ylmethyl]-N—((S)-6-morpholin-4-yl-4,5,6,7-tetrahydro-benzothiazol-2-yl)-benzamide] — 2.9-fold higher, 1 nM
- CN1CCN(C2CCc3nc(NC(=O)c4cccc(Cn5cc(-c6ccc(C#N)cc6)cn5)c4)sc3C2)CC1 (stereo not drawn) [Compound 11, 3-[4-(4-Cyano-phenyl)-pyrazol-1-ylmethyl]-N-[6-(4-methyl-piperazin-1-yl)-4,5,6,7-tetrahydro-benzothiazol-2-yl]-benzamide] — 1.7-fold higher, 0.58 nM
- N#CCCN[C@H]1CCc2nc(NC(=O)c3cccc(Cn4cc(-c5ccc(C#N)cc5)nn4)c3)sc2C1 [Compound 13, N—[(S)-6-(2-Cyano-ethylamino)-4,5,6,7-tetrahydro-benzothiazol-2-yl]-3-[4-(4-cyano-phenyl)-[1,2,3]triazol-1-ylmethyl]-benzamide] — 2.9-fold higher, 1 nM
- COCCN(C)C1CCc2nc(NC(=O)c3cccc(Cn4cc(-c5ccc(C#N)cc5)cn4)c3)sc2C1 (stereo not drawn) [Compound 14, 3-[4-(4-Cyano-phenyl)-pyrazol-1-ylmethyl]-N-{6-[(2-methoxy-ethyl)-methyl-amino]-4,5,6,7-tetrahydro-benzothiazol-2-yl}-benzamide] — within 1.5-fold, 0.41 nM
- N#Cc1ccc(-c2cnn(Cc3cccc(C(=O)Nc4nc5c(s4)C[C@@H](NCCC(F)(F)F)CC5)c3)c2)cc1 [Compound 20, 3-[4-(4-Cyano-phenyl)-pyrazol-1-ylmethyl]-N—[(S)-6-(3,3,3-trifluoro-propylamino)-4,5,6,7-tetrahydro-benzothiazol-2-yl]-benzamide] — within 1.5-fold, 0.47 nM
- CN1CCN(C2CCc3nc(NC(=O)c4cccc(Cn5cc(-c6ccc(C#N)cc6)nn5)c4)sc3C2)CC1 (stereo not drawn) [Compound 23, 3-[4-(4-Cyano-phenyl)-[1,2,3]triazol-1-ylmethyl]-N-[6-(4-methyl-piperazin-1-yl)-4,5,6,7-tetrahydro-benzothiazol-2-yl]-benzamide] — 3.7-fold higher, 1.3 nM
- CN1CCN([C@H]2CCc3nc(NC(=O)c4cccc(Cn5cc(-c6ccc(C#N)cc6)cn5)c4)sc3C2)CC1 [Compound 25, 3-[4-(4-Cyano-phenyl)-pyrazol-1-ylmethyl]-N—[(S)-6-(4-methyl-piperazin-1-yl)-4,5,6,7-tetrahydro-benzothiazol-2-yl]-benzamide] — 1.9-fold higher, 0.65 nM
- N#Cc1ccc(-c2cnn(Cc3cccc(C(=O)Nc4nc5c(s4)C[C@@H](N)CC5)c3)c2)cc1 [Compound 28, N—((S)-6-Amino-4,5,6,7-tetrahydro-benzothiazol-2-yl)-3-[4-(4-cyano-phenyl)-pyrazol-1-ylmethyl]-benzamide] — the same, 0.35 nM
- N#Cc1ccc(-c2cn(Cc3cccc(C(=O)Nc4nc5c(s4)C[C@@H](N)CC5)c3)nn2)cc1 [Compound 29, N—((S)-6-Amino-4,5,6,7-tetrahydro-benzothiazol-2-yl)-3-[4-(4-cyano-henyl)-[1,2,3]triazol-1-ylmethyl]-benzamide] — 2.1-fold higher, 0.73 nM
- CN(CCC(F)(F)F)[C@H]1CCc2nc(NC(=O)c3cccc(Cn4cc(-c5ccc(C#N)cc5)nn4)c3)sc2C1 [Compound 31, 3-[4-(4-Cyano-phenyl)-[1,2,3]triazol-1-ylmethyl]-N-{(S)-6-[methyl-(3,3,3-trifluoro-propyl)-amino]-4,5,6,7-tetrahydro-benzothiazol-2-yl}-benzamide] — 8.9-fold higher, 3.1 nM
- COCCN(C)[C@H]1CCc2nc(NC(=O)c3cccc(Cn4cc(-c5ccc(C#N)cc5)cn4)c3)sc2C1 [Compound 46, 3-[4-(4-Cyano-phenyl)-pyrazol-1-ylmethyl]-N-{(S)-6-[(2-methoxy-ethyl)-methyl-amino]-4,5,6,7-tetrahydro-benzothiazol-2-yl}-benzamide] — within 1.5-fold, 0.34 nM
- COCCN[C@H]1CCc2nc(NC(=O)c3cccc(Cn4cc(-c5ccc(C#N)cc5)nn4)c3)sc2C1 [Compound 48, 3-[4-(4-Cyano-phenyl)-[1,2,3]triazol-1-ylmethyl]-N—[(S)-6-(2-methoxy-ethylamino)-4,5,6,7-tetrahydro-benzothiazol-2-yl]-benzamide] — within 1.5-fold, 0.32 nM

What follows are molecules tested against T1, ROCKII (1-543) (assay: Luciferin-Luciferase Assay (PKLight ATP detection)). Conditions: 7.5 nM ROCKII (1-543), 750 nM ATP.
Format: biochemical
Set-up: ROCKII (1-543) (62,408 Da) was diluted in assay buffer
Description: 1. Luciferin-Luciferase Assay
The activity of ROCKII (1-543) kinase was measured utilizing Cambrex PKLight ATP Detection Reagent, a homogeneous assay technology using luciferin-luciferase to quantify residual ATP. The assay was performed in 384-well low-volume, white, non-binding surface microtiter plates (Corning). The assay buffer was 25 mM HEPES, pH 7.5, 10 mM MgCl2, 50 mM KCl, 0.2% BSA, 0.01% CHAPS, 100 μM Na3VO4 and 0.5 mM DTT. Test compounds, dissolved in neat DMSO at 500 μg/mL, were serially diluted for dose response for a final starting concentration of 3 μg/mL in 1% DMSO of assay buffer. ROCKII (1-543) (62,408 Da) was diluted in assay buffer to a final concentration of 7.5 nM in a total volume of 15 μL. Positive controls were reaction mixtures containing no test compound; negative controls (blanks) were reaction mixtures containing no kinase. After 15 minutes of pre-incubation of the test compounds with the kinase, a mixture of ATP and peptide substrate (AKRRRLSSLRA) in assay buffer was added to each well for a final concentration of 750 nM ATP and 500 nM peptide, respectively. After 90 minutes of incubation of the kinase reaction at 28° C. temperature, 10 μL of PKLight ATP Detection Reagent (warmed to room temperature previously) was added to each well. The assay plate was incubated at room temperature for additional 15 minutes and then read on an Analyst in luminescence mode. Dose-response experiments for each of the test compounds were conducted in quadruplet. IC50 values of test compounds represent 50% response of the positive control from the dose-response curve.
Target sequence in this assay (O75116 1-543): as the sequence (O75116 1-543, species assumed) above

Point of comparison: N#Cc1ccc(-c2cnn(Cc3cccc(C(=O)Nc4nc5c(s4)CC(NCC(F)F)CC5)c3)c2)cc1 (stereo not drawn) [Compound 51, 3-[4-(4-Cyano-phenyl)-pyrazol-1-ylmethyl]-N-[6-(2,2-difluoro-ethylamino)-4,5,6,7-tetrahydro-benzothiazol-2-yl]-benzamide], IC50 1.8 nM. Against it:
- N#Cc1cccc(-c2ccnc(Cc3cccc(C(=O)Nc4nc5c(s4)C[C@@H](N4CCOCC4)CC5)c3)n2)c1 [Compound 36, 3-[4-(3-Cyano-phenyl)-pyrimidin-2-ylmethyl]-N—((S)-6-morpholin-4-yl-4,5,6,7-tetrahydro-benzothiazol-2-yl)-benzamide] — 5.5-fold higher, 9.9 nM
- N#Cc1ccc(-c2cn(Cc3cccc(C(=O)Nc4nc5c(s4)CC(NCC(F)F)CC5)c3)nn2)cc1 (stereo not drawn) [Compound 52, 3-[4-(4-Cyano-phenyl)-[1,2,3]triazol-1-ylmethyl]-N-[6-(2,2-difluoro-ethylamino)-4,5,6,7-tetrahydro-benzothiazol-2-yl]-benzamide] — 5.2-fold higher, 9.4 nM
- CN(CCC#N)[C@H]1CCc2nc(NC(=O)c3cccc(Cn4cc(-c5ccc(C#N)cc5)cn4)c3)sc2C1 [Compound 53, N-{(S)-6-[(2-Cyano-ethyl)-methyl-amino]-4,5,6,7-tetrahydro-benzothiazol-2-yl}-3-[4-(4-cyano-phenyl)-pyrazol-1-ylmethyl]-benzamide] — within 1.5-fold, 1.9 nM
- COCCN[C@@H]1CCc2nc(NC(=O)c3cccc(Cn4cc(-c5ccc(C#N)cc5)cn4)c3)sc2C1 [Compound 57, 3-[4-(4-Cyano-phenyl)-pyrazol-1-ylmethyl]-N—[(R)-6-(2-methoxy-ethylamino)-4,5,6,7-tetrahydro-benzothiazol-2-yl]-benzamide] — within 1.5-fold, 1.9 nM
